Reference: patent US11099177B2, “Protein kinase allostery sensor and methods of making and using same” (REGENTS OF THE UNIVERSITY OF MINNESOTA, priority 2016, dated 2021)
Positions count from the first letter of the chain named.

Columns and labels:
Aurora A (AurA) [1] = experiment: Steady-state FRET ligand titration with FRET-labeled AurA; type: binding, human; conditions: apo AurA, Alexa 488/Alexa 568
Experimental: (§1) ADP stocks (Sigma-Aldrich Corporation, St. Louis, Mo.) were dissolved at 100 mM in 1 M HEPES pH 7.5 and stored at −20° C.
(§2) Samples were excited at 490 nm and fluorescence emission was recorded 510 nm to 750 nm.
(§3) Ligand binding data were visualized and analyzed using Microsoft Excel and Origin software. FRET was calculated using the equation E=1−(DA/D), where E is the efficiency of FRET, DA is the fluorescence of the AurA+D+A sample, and D is the fluorescence of the corresponding AurA+D control sample.

Aurora A (AurA) [2] = target: T1, Aurora A (AurA) (Homo sapiens, UniProt O14965, C290S/C393S/L225C/S284C); experiment: as above; type: binding; conditions: ligand added to apo AurA, calculated from published R0
T1 construct: human Aurora A, residues 122-403, containing an N-terminal hexahistidine tag; hexahistidine (N); made in house; host or cells: E. coli BL21-DE3-RIL
T1 sequence (O14965 122-403 L225C/S284C/C290S/C393S): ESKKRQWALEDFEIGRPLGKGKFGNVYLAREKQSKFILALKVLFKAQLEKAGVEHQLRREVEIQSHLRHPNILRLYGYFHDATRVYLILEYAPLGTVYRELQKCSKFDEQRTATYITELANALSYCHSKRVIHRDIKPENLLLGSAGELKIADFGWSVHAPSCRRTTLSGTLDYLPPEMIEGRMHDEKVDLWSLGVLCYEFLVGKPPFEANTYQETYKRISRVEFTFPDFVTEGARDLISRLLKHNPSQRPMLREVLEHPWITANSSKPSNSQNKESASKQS
Experimental: as §1, §2, §3

Aurora A (AurA) [3] = target: T2, Aurora A (AurA) (Homo sapiens, UniProt O14965, C290S/C393S/L225C/T287C); experiment: Time-resolved FRET ligand titration with labeled AurA (Example 1); type: binding; conditions: TR-FRET, ligand added to labeled AurA
T2 construct: human Aurora A, residues 122-403, containing an N-terminal hexahistidine tag; hexahistidine (N); made in house; host or cells: E. coli BL21-DE3-RIL
T2 sequence (O14965 122-403 L225C/T287C/C290S/C393S): T1 sequence (O14965 122-403 L225C/S284C/C290S/C393S) with C163S, T166C
Experimental: Direct waveform recording experiments were performed in a 384 well plate, and measurement was performed using a NovaFluor fluorescence lifetime plate reader (Fluorescence Innovations, Inc., Minneapolis, Minn.). […] Experiments were performed at 50 nM AurA in ADP Quest Assay buffer+1% DMSO.
TCSPC experiments were performed using a spectrometer built by the group of Dr. David D. Thomas. […] Experiments were performed at 100 nM to 200 nM AurA in ADP Quest Assay buffer+1% DMSO.

Aurora A (AurA) [4] = experiment: Time-resolved FRET lifetime assay, AurA biosensor labeled at L225C/S284C, 384-well plates; conditions: for inter-probe distance / DFG-In/DFG-Out state of AurA on inhibitor binding: 5 μM inhibitor; for inter-probe distance: samples lacking TPX2 (phosphorylated and unphosphorylated AurA); for DFG-In/DFG-Out state of AurA on inhibitor binding: samples lacking TPX2
Experimental: (§4) Serial dilution of each of the inhibitors was performed to prepare 50× stock solutions in DMSO which were transferred to 96-well mother plates. Using a Mosquito HV liquid handler (TTP Labtech Ltd, UK), 1 μL of 50× stock solution was transferred from the 96-well mother plates to 384-well assay plates. […] Donor-only and donor+acceptor labeled AurA, +/− saturating concentrations of TPX2 (either 10 μM or 20 μM), were prepared separately to a final concentration in the plates of 1 nM or 50 nM AurA in ADP Quest buffer (15 mM HEPES, pH 7.4, 20 mM NaCl, 1 mM EGTA, 0.02% Tween-20, 10 mM MgCl2, 0.1 mg/mL BGG (bovine-γ-globulins), 1% DMSO). The donor-only and donor+acceptor samples were separately distributed to the 384-well assay plates using a Multidrop-Combi dispenser with standard plastic tip cassettes (Thermo Fisher Scientific, Waltham, Mass.). Plates were incubated at room temperature (25° C.) for 20 minutes prior to being read on the Fluorescence Lifetime Plate Reader which was designed and built by Fluorescence Innovations, Inc. (Minneapolis, Minn.).
(§5) In MATLAB, waveforms were normalized and grouped into samples types based on the plate layout and output into a format that can be read by the fitting program. These parameters include the timescale of experiments, the instrument response function (IRF), and the matched pairs of normalized donor plus acceptor (D+A) and donor-only (D−O) waveforms for each sample. […] Briefly, the instrument response function and the model of the fluorescence decay are convolved to define the nanosecond decay which describes the measured time-resolved waveforms. […] D+A samples were fit using the same exponential functions as the D−O fits, but modified by a distance-dependent FRET term, consisting of a Gaussian distribution of inter-probe distances, that describes the decrease in the lifetime relative to the D−O samples. The mean distance and full-width half maximum of the Gaussian functions were fit individually for each D+A and D−O pairing, while the parameters that described general conditions of the experiment common among all samples, such as the fraction of a given D+A sample containing D-only protein, were globally linked. Numerical fitting was performed using the Levenberg-Marquardt method.
(§6) The donor+acceptor waveform (FIG. 8C) was modeled from the amplitudes and lifetimes present in the matched donor-only sample and modified so that a distance-dependent resonance energy transfer term describes the decrease in fluorescence lifetime relative to the donor-only control. An iterative fitting procedure was employed in which parameters that could be shared across the plate were initially globally constrained while the remaining parameters settled into photo-physically realistic values, and then released to finalize the distance determinations. In the final iteration, the distance and full-width half maximum of the Gaussian model were allowed to vary individually for each sample.
(§7) The waveforms measured in the presence of a maximal concentration (5 μM) of each inhibitor were fit as described above.

AurA = target: T3, AurA (Homo sapiens, UniProt O14965); conditions: FIG. 11; cited from earlier work
T3 sequence (O14965 1-403): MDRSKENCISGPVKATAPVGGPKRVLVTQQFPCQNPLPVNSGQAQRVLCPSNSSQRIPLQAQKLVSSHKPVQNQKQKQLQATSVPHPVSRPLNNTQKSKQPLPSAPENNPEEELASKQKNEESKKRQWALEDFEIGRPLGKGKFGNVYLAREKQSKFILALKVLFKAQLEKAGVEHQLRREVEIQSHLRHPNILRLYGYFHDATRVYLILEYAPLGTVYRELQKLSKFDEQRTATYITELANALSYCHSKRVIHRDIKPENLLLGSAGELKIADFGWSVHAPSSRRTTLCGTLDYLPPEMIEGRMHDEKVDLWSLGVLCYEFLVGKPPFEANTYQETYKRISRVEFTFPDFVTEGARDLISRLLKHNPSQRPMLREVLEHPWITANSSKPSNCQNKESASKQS

Aurora A (AurA) [5] = target: T4, Aurora A (AurA) (Homo sapiens, UniProt O14965, C290S/C393S/L225C/S284C); experiment: Time-resolved FRET lifetime assay, AurA biosensor labeled at L225C/S284C, 384-well plates; conditions: 5 μM inhibitor, unphosphorylated AurA bound to TPX2
T4 sequence (O14965 122-403 L225C/S284C/C290S/C393S): T1 sequence (O14965 122-403 L225C/S284C/C290S/C393S)
T4 sequence (Q9ULW0 1-43 partner): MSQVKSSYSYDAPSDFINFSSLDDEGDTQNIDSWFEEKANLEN
Experimental: as §4, §5, §6, §7

p53-altered liver cancer = conditions: mice; cited from earlier work
[6] = system: interaction between AurA and the oncoprotein MYC; conditions: cited from earlier work

Row | Compound | change in FRET on addition of ligand (Aurora A (AurA) [1]) | inter-probe distance (Aurora A (AurA) [4]) | DFG-In/DFG-Out state of AurA on inhibitor binding (Aurora A (AurA) [4]) | further results
1 | Nc1ncnc2c1ncn2[C@@H]1O[C@H](COP(=O)(O)OP(=O)(O)O)[C@@H](O)[C@H]1O [ADP] | reduce FRET | – | – | increase in population average R (donor-acceptor distance) (Aurora A (AurA) [2]): approximately 3 Å; change in average fluorescence lifetime (Aurora A (AurA) [3]): increase in average fluorescence lifetime
2 | O=C(Nc1cccc(Cl)c1)Nc1ncc(CCNc2ncnc3ccsc23)s1 [SNS-314] | – | long distances | – | –
3 | TPX2: AurA-specific activator peptide, synthetic construct of human TPX2 residues 1-43 (MSQVKSSYSYDAPSDFINFSSLDDEGDTQNIDSWFEEKANLEN; UniProt Q9ULW0 1-43, looked up, fragment) | reduces FRET | – | – | width of the distance distribution (full width at half maximum) (Aurora A (AurA) [4]; in the presence of TPX2, no inhibitor): narrow significantly; inter-dye distance (Aurora A (AurA) [4]; in the presence of TPX2, no inhibitor, unphosphorylated and phosphorylated samples (approximately 30 Å without TPX2)): approximately 50 Å
4 | CO[C@@H](C(=O)N1Cc2n[nH]c(NC(=O)c3ccc(N4CCN(C)CC4)cc3)c2C1)c1ccccc1 [Danusertib] | – | ~30 Å | DFG-Out state | AurA state in the X-ray structure with bound inhibitor (AurA): DFG-Out state; inter-probe distance relative to DFG-In compounds (Aurora A (AurA) [5]): slightly shorter distances
5 | CCc1cccc(CC)c1NC(=O)N1Cc2n[nH]c(NC(=O)c3ccc(N4CCN(C)CC4)cc3)c2C1 [PHA-680632] | – | long distances | DFG-In state | –
6 | COc1cc(N2CCC(N3CCN(C)CC3)CC2)ccc1Nc1ncc(Cl)c(Nc2ccccc2S(=O)(=O)C(C)C)n1 [TAE-684] | – | long distances | DFG-In state | –
7 | Cc1cc(Nc2cc(N3CCN(C)CC3)nc(Sc3ccc(NC(=O)C4CC4)cc3)n2)n[nH]1 [VX-680] | no observable change | ~30 Å | DFG-Out state | –
8 | O=C(O)c1ccc(Nc2ncc3c(n2)-c2ccc(Cl)cc2C(c2c(F)cccc2F)=NC3)cc1 [MLN-8054] | – | – | DFG-Out state | AurA state in the X-ray structure with bound inhibitor (AurA): DFG-Out state; treatment outcome (p53-altered liver cancer): successful treatment; effect on the AurA-MYC interaction [6]: disrupt
